# Source: US10005720B2, “Compounds useful for the treatment of metabolic disorders and synthesis of the same” (NORTH CAROLINA CENTRAL UNIVERSITY, priority 2013, dated 2018)
# Entries after “also recorded” stand apart in the source; their conditions may differ.
# How the values were obtained:
# CAR3 = CAR3 level in liver of treated mice (Western blot, 2D-DiGE); format: in vivo, mouse
# Excerpt: (§1) The expression and proteomic studies were implemented with particular interest in lipid/energy metabolism pathways.
# [1] = tested on: C57-diet induced obesity mouse model; assay: Intraperitoneal glucose tolerance testing (IP-GTT) in C57-DIO mice; format: in vivo
# Procedure: Glucose tolerance testing (IP-GTT) was performed via an IP injection of a 10% glucose solution at […] body weight within a 10 mL/kg body weight volume. Blood glucose was monitored pre and post injection at 15-minute intervals for 60 minutes using a standard glucometer. IP-GTT was chosen over oral GTT to bypass gut hormone signaling (GLP-1) for a more direct assessment of hepatic insulin resistance. IPGTT was performed on animals both prior to and after the 12-day test compound administration period to glean both individual animal responses and cohort averaged responses.
# [2] = tested on: genes involved in lipid/energy metabolism; assay: Gene chip microarray analysis of sham and drug treated liver; format: in vivo, mouse; conditions: treated vs sham liver
# Excerpt: The expression and proteomic studies were implemented with particular interest in lipid/energy metabolism pathways. […] We are also particularly interested in Car3, since this gene represents ˜30% of soluble protein in adipose tissue, goes up in adipocytes (˜2-fold) in response to high fat diet, but goes down in the liver dramatically in response to energetic starvation. Finally, Car3 is negatively regulated by insulin signaling and thus might reflect insulin sensitivity. FGF21 and Car3 are good biomarkers for liver function in response to metabolic changes.
# [3] = tested on: C57-diet induced obesity (DIO) mouse model; assay: Histological scoring of hepatic steatosis in the C57-DIO mouse model; format: in vivo; conditions: C57-DIO mice; for fatty liver phenotype / hepatic steatosis by liver histology (H&E): once-daily IP injection for 12 days, 10 mg/kg body weight
# Excerpt: The C57-diet induced obesity (DIO) mouse model was used in this study as a disease model for fatty liver disease and hepatic insulin resistance (FIG. 4). It was observed that eighty percent of the C57-DIO animals develop the fatty liver phenotype at 20-weeks, which highly correlates with insulin resistance penetrance and poor glycemic control. […] In humans, progressive accumulation of hepatic triglycerides is associated with metabolic syndrome/T2D and leads to impairment of insulin action in the liver. The two guiding phenotypic indicators of test compound efficacy in earlier studies were: histological scoring of hepatic steatosis, and intraperitoneal (IP) glucose tolerance.
# Singly housed mice raised on a 60%-fat diet (20-week old males purchased from Sax labs) with extensive fatty liver were treated with the test compound for 12 days via daily intraperitoneal injection (IP). […] In addition, coats of treated animals were drier (FIG. 4B vs. C), consistent with reduction in triglycerides (also observed in the DGAT1 mouse knockout with dry coat).
# During initial animal screening, we developed a quantitative histomorphometry platform software using components of the open-source CellProfiler software for automatically quantifying/scoring liver lipid content through lipid droplet detection in entire liver sections. In brief, entire H&E liver slides are scanned at 400× total magnification using an Aperio ScanScope slide scanner. For automated lipid phenotyping, we 1) detect entire pieces of tissue, 2) identify individual lipid droplets based on size and shape and, 3) measure mean droplet size and droplet density per […]. This automated quantitation of liver lipid phenotype, supervised and verified by a trained veterinary pathologist (PI Yi), offers an unbiased and simple method for comparing compound effects. Results from manual scoring of average degree of steatosis in cohorts are; Sham-90%, B127443-27% and are in good agreement with machine-aided scoring results as shown in FIG. 6.
# FGF21 = FGF21 expression in liver of treated C57-DIO mice (Western blot, qPCR, microarray); format: in vivo, mouse
# Excerpt: as §1
# [4] = drug treated at 10 mg/kg vs. vehicle
# [5] = trials on large numbers of mice
structure (smiles),measurement,setting,value
"O=C(Nc1ccc([N+](=O)[O-])cc1Cl)c1cc(Cl)ccc1O [Example B-127443, Niclosamide]","CAR3 in liver, Western blot",CAR3; [4],significant reduction
same,"CAR3 protein level in liver, comparative proteomics (2D-DiGE)",CAR3; livers of treated mice,significantly lower levels of CAR3 protein
same,Car3 expression,CAR3; [5],decreasing
same,"glucose tolerance (IP-GTT), individual animals before and after treatment","[1]; 12-day treatment with 5 mg/kg, Animals 1,3",improved glucose tolerance
same,glucose tolerance (IP-GTT),"[1]; 12-day treatment, 10 mg/kg, cohort average (n=6) vs sham, 10 mg/kg",markedly improved; also recorded: marked improvement in glucose tolerance
same,"expression of genes involved in lipid/energy metabolism (FGF21, Fitm1, Fitm2, CideC, Cyp7A1, chn)",[2],significantly changed the expression of many genes involved in lipid/energy metabolism
same,fatty liver phenotype / hepatic steatosis by liver histology (H&E),[3]; 10 mg/kg,dramatic therapeutic effects; also recorded: reversal of fatty phenotype
same,fatty liver phenotype / hepatic steatosis by liver histology (H&E),"[3]; listed as B127443, 10 mg/kg",efficacious; also recorded: robust responses
same,"average degree of steatosis in cohorts, manual scoring",[3]; Sham 90%,27%
same,"FGF21 expression in liver, Western blot",FGF21; [4],stimulation
same,FGF21 expression,FGF21; [5],increases
